We go through one molecule from patent US5672582A, “Thrombin inhibitors” (Merck & Co., Inc., priority 1994, dated 1997).

The target in series [1] is T1, plasma kallikrein (p-Kal) (Homo sapiens, UniProt P03952).
T1 construct: plasma kallikrein (p-Kal)
In words: Chromogenic assay, plasma kallikrein. It counts as biochemical. The conditions noted are these: Table 3.

Series [2] deals with FeCl3 induced arterial thrombosis in rats. Put plainly: Rat ferric chloride assay. The format is in vivo. As to the method:
In the assay, male Sprague-Dawley rats (body weights 200-350 grams) were anesthetized with dial-urethane solution (0.1 ml/100 gm body weight i.p.), and a lateral tail vein was cannulated with a 23 gauge needle connected to a 12 inch length of PE50 robing. The robing was attached to a 3-way valve by a tubing adapter. Saline (control) or test compound, as appropriate, was administered via the tail vein catheter. A tracheostomy was performed with a 0.75 inch length of PE205 tubing. The right carotid artery was exposed and a 1.3 mm diameter Doppler flow probe was placed on the vessel. Body temperature was maintained at 37° C. using a heat lamp.
Rats (8-10/group) were randomized to continuous intravenous infusions of saline or test compound administered via the tail vein at a rate of 0.028 ml/min. Treatment infusions were initiated 60 min before the placement of a 3 mm square piece of Whatman No. 1 filter paper saturated with 35% FeCl3 onto the exposed carotid artery distal to the flow probe. […] Time to occlusion was defined as the time from application of FeCl3 to thrombotic occlusion of the vessel.

Series [3] deals with tissue plasminogen activator (t-PA) (Homo sapiens, UniProt P00750). Put plainly: Chromogenic assay, tissue plasminogen activator. The settings on record: Table 3, read-out: Ki (nM) tPA. The format is biochemical.
In series [4] the target is activated protein C (APC) (Homo sapiens, UniProt P04070). Put plainly: Chromogenic assay, activated protein C. The format is biochemical. The conditions noted are these: Table 3.
Another series deals with plasmin (Pl) (Homo sapiens, UniProt P00747). In words: Chromogenic assay, plasmin. The format is biochemical. The conditions noted are these: Table 3.
Series [5] can be described thus: Oral bioavailability in rhesus monkeys. The format is in vivo, rhesus monkey. The conditions noted are these: oral (nasogastric tube), plasma. As to the method:
(§1) Concentration was determined in animal plasma after oral (gastric lavage) administration.
In monkeys, the test agent was administered intravenously as a bolus or orally by pediatric nasogastric tube. For intravenous studies, the sterile agent was dissolved in sterile 0.9% saline and administered via 21 g butterfly, usually via the brachial vein. For oral studies, the sterile agent was dissolved in sterile water and administered via a nasogastric tube. Blood samples (4 cc each) were collected with a plastic syringe containing 3.8% sodium citrate via venipuncture (at sites other than that of drug administration) for drug plasma levels and thrombin clotting time assay. The monkeys were given water ad lib. Monkeys were allowed to recover 14 days before being used again in a similar protocol.
(§2) Thrombin inhibitor concentrations in plasma were determined by the inactivation of a known amount of thrombin (where [thrombin]>>Ki of inhibitor) from an aliquot of acid-neutralized rat plasma. 0.25 ml of rat platelet poor plasma was mixed with 25 μl of 3M perchloric acid. The sample was centrifuged (14,000×g for 10 minutes) and 0.2 ml of the supernatant was neutralized with 0.43 ml of 1M TrisB 0.15M NaCl/0.1% PEG 8000 pH 7.8. 50-100 μl of acid-neutralized rat plasma was mixed with 50-100 μl of 0.03-3 μM thrombin. […]

Series [6] can be described thus: Oral bioavailability in rats. The format is in vivo. The conditions noted are these: rat, oral (gastric lavage), plasma. The protocol: as §1
Rats were anesthetized and instrumented with indwelling left jugular vein and left carotid artery catheters for test agent administration and for serial blood sampling, respectively. One day after instrumentation, blood samples were obtained before saline or inhibitor administration and at increasing time points after the oral administration.
Thrombin inhibitor concentrations in plasma were determined by the inactivation of a known amount of thrombin (where [thrombin]>>Ki of inhibitor) from an aliquot of acid-neutralized rat plasma. 0.25 ml of rat platelet poor plasma was mixed with 25 μl of 3M perchloric acid. The sample was centrifuged (14,000×g for 10 minutes) and 0.2 ml of the supernatant was neutralized with 0.43 ml of 1M TrisB 0.15M NaCl/0.1% PEG 8000 pH 7.8. 50-100 μl of acid-neutralized rat plasma was mixed with 50-100 μl of 0.03-3 μM thrombin. After equilibration, 5-10 μl of 5 mM Sar-Pro-Arg-pna (for <0.1 μM thrombin) or Spectrozyme PCa (for >0.1 μM thrombin) was added. The observed inhibited velocity was compared to inhibited velocities from a standard curve generated from rat plasma containing known amounts of inhibitor treated in an identical manner. The table below summarizes the results from these studies.

A further series deals with T2, bovine trypsin (Bos taurus, UniProt P00760).
T2 sequence (P00760 24-246): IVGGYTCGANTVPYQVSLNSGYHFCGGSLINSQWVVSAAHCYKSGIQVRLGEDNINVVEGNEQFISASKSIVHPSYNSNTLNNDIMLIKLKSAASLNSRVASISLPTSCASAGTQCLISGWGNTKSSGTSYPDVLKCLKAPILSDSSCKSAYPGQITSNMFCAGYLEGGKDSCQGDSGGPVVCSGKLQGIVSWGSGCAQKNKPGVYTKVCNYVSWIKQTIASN
In words: Proteinase inhibition assay, bovine trypsin. It counts as biochemical. The conditions noted are these: Table 1; 25° C., 0.05M TRIS pH 7.4, 0.15M NaCl, 0.1% PEG, 1 mM CaCl2; listed as drawing 22; read-out: Ki (μM) Trypsin. As to the method: Assays of human α-thrombin and bovine trypsin were performed at 25° C. in 0.05M TRIS buffer pH 7.4, 0.15M NaCl, 0.1% PEG. Trypsin assays also contained 1 mM CaCl2.
In assays wherein rates of hydrolysis of a p-nitroanilide (pna) substrate were determined, a Thermomax 96-well plate reader was used was used to measure (at 405 nm) the time dependent appearance of p-nitroaniline. sar-PR-pna was used to assay human α-thrombin (Km =125 μM) and bovine trypsin (Km =125 μM). "Sar" is the three letter abbreviation for the amino acid sarcosine (N-methylglycine). p-Nitroanilide substrate concentration was determined from measurements of absorbance at 342 nm using an extinction coefficient of 8270 cm^-1 M^-1.
Times required to achieve equilibration between enzyme and inhibitor were determined in control experiments. Initial velocities of product formation in the absence (Vo) or presence of inhibitor (Vi) were measured. Assuming competitive inhibition, and that unity is negligible compared Km /[S], [S]/e, and [I]/e (where [S], [I], and e respectively represent the total concentrations, of substrate, inhibitor and enzyme), the equilibrium constant (Ki) for dissociation of the inhibitor from the enzyme can be obtained from the dependence of Vo /Vi on [I] shown in equation 1.
Using the assays described above, the following additional embodiments of the invention were evaluated and shown to be selective for inhibiting thrombin. The constants were determined at pH 7.4 in buffer containing 0.05M Tris, 0.15M NaCl, 0.1% PEG-8000 at room temperature.

A further series concerns the target T3, Factor Xa (fXa) (Homo sapiens, UniProt P00742).
T3 construct: Factor Xa (fXa), plasma kallikrein (p-Kal), plasmin (Pl)
Put plainly: Chromogenic assay, Factor Xa. The settings on record: Table 3. The format is biochemical.

A short description of series [7]: Oral bioavailability in dogs. It counts as in vivo. The conditions noted are these: dog, oral (gastric lavage), plasma. As to the method: as §1
In dogs, the test agent was administered intravenously as a bolus or orally by gastric lavage. For intravenous studies, the sterile agent is dissolved in sterile 0.9% saline and administered via 19 g butterfly, usually via the saphenous vein. For oral studies, the sterile agent was dissolved in sterile water and administered via a feeding tube. Blood samples (5 cc each) were collected with a plastic syringe containing 3.8% sodium citrate via venipuncture (at sites other than that of drug administration) for drug plasma levels and thrombin clotting time assay. Dogs were allowed to recover 14 days before being used again in a similar protocol.
as §2, with “thrombin. After equilibration, 5-10 μl of 5 mM Sar-Pro-Arg-pna (for <0.1 μM thrombin) or Spectrozyme PCa (for >0.1 μM thrombin) was added.” for “thrombin.”

plasmin (Pl), sequence (P00747 581-810 limits assumed, species assumed): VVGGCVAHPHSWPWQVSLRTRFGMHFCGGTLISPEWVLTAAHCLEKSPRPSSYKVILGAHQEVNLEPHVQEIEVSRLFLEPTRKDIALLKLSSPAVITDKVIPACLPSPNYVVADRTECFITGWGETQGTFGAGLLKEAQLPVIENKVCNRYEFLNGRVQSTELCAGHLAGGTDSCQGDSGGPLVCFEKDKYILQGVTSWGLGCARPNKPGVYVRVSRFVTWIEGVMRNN
plasmin (Pl), sequence (P00747 97-580 limits assumed, species assumed): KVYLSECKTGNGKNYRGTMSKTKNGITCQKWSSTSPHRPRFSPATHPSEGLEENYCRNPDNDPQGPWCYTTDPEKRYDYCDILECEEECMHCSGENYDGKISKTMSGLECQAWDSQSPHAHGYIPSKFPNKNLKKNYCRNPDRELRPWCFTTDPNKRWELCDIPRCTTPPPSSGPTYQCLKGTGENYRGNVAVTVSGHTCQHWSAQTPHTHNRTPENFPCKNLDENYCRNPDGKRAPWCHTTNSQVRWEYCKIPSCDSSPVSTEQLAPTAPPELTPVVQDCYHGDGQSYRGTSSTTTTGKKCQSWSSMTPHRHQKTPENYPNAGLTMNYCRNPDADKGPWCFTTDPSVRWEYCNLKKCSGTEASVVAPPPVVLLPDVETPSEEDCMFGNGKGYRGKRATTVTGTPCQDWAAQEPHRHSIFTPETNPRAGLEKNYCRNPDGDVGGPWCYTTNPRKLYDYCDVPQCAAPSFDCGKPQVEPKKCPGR
activated protein C (APC), sequence (P04070 212-461 limits assumed): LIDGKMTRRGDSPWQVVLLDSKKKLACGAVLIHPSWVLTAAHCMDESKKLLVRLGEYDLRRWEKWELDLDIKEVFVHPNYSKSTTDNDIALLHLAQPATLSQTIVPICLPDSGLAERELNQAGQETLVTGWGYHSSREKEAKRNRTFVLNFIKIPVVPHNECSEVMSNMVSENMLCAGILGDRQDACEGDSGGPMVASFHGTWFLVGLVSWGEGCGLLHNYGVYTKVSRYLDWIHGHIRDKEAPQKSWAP
activated protein C (APC), sequence (P04070 43-197 limits assumed): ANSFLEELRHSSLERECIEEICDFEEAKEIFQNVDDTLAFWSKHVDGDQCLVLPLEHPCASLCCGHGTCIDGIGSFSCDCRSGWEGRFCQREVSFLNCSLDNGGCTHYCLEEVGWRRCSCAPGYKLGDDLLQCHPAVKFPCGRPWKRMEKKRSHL
tissue plasminogen activator (t-PA), sequence (P00750 36-562, species assumed): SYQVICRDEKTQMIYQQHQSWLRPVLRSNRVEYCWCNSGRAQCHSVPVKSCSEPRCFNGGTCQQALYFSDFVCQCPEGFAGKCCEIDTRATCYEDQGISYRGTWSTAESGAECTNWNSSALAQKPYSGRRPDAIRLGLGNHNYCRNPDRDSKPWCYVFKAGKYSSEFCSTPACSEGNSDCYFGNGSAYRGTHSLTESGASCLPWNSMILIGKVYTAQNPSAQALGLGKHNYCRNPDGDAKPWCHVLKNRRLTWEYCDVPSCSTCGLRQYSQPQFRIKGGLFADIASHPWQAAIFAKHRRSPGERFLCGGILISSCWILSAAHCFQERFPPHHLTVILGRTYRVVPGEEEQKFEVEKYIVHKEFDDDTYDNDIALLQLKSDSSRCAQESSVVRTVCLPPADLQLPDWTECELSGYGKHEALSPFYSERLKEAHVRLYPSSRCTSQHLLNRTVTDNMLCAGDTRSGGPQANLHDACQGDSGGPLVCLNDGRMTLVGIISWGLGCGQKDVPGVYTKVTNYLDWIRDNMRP
T1 sequence (P03952 391-638 limits assumed, species assumed): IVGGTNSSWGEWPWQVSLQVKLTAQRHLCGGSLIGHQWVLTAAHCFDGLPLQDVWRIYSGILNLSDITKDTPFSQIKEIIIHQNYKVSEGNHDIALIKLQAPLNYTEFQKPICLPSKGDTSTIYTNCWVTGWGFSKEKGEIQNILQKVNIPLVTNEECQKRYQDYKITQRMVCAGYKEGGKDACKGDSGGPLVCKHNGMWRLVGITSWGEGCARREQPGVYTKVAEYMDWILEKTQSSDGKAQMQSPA
T1 sequence (P03952 20-390 limits assumed, species assumed): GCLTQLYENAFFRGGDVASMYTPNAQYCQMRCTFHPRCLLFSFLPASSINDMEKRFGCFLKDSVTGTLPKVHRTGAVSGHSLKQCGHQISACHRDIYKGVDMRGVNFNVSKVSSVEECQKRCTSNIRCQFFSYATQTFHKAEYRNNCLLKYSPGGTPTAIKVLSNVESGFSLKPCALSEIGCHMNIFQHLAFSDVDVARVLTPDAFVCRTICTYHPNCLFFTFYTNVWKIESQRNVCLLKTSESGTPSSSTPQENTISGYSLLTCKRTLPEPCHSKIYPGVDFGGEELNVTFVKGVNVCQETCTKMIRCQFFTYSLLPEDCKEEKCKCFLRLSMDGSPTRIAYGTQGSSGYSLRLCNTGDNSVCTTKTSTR
T3 sequence (P00742 235-488 limits assumed): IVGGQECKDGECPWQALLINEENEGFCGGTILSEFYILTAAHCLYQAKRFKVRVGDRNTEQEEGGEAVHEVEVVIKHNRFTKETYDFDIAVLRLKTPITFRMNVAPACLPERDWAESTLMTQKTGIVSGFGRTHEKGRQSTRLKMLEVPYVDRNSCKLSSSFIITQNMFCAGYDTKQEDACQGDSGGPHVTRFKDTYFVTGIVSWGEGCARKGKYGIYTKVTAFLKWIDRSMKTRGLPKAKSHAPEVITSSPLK
T3 sequence (P00742 41-179 limits assumed): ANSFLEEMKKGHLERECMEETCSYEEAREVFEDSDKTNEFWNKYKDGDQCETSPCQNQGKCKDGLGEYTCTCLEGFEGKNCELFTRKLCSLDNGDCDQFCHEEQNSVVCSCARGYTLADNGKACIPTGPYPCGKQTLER

One may read the Ki as a measure of affinity in units of concentration, obtained from inhibition or displacement. `CNC(=O)C(=O)C(NC(=O)C1CCCN1C(=O)C(Cc1ccccc1)NC)C1CCC(N)CC1` [4-4, H-NMe-D.-Phe-Pro-t-L-Acg.PSI.[COCO]--NHMe]: the inhibition constant (Ki) in series [1] was greater than 10000 nM; in series [3], greater than 10000 nM; in series [4] it was greater than 10000 nM; at plasmin (Pl) it was greater than 10000 nM; at bovine trypsin it was 1.15 µM; at Factor Xa (fXa) it was greater than 10000 nM. The Incidence of occlusion was 3/4 in series [2] (1 μg/kg/min i.v. infusion), 2/4 in series [2] (5 μg/kg/min i.v. infusion) and 0/4 in series [2] (10 μg/kg/min i.v. infusion). The “Minutes to occulsion of those occluding” value was 21 min in series [2] (1 μg/kg/min i.v. infusion) and 18 to 20 min in series [2] (5 μg/kg/min i.v. infusion). For the same molecule, the “% bioavailable” value is on record as 5% in [5], 5% in [6] and 8% in series [7].
